These results are taken from patent US11697833B2, “Antimicrobial susceptibility testing device and method for use with portable electronic device” (THE REGENTS OF THE UNIVERSITY OF CALIFORNIA, priority 2016, dated 2023).

The test system of the experiment is Klebsiella pneumoniae. In words: Broth microdilution antimicrobial susceptibility testing (AST) of patient isolates, 96-well plate read for turbidity. Format: cell-based. The note with it: clinical patient isolate plates, 24 hours at 37° C, plate ID 1 (AM), 5 (A/S), 8 (MPM); for Diagnostician Decision (drug susceptibility interpretation): expert diagnostician visual reading (gold standard); for Automated System Decision (drug susceptibility interpretation): mobile phone-based AST plate reader, misdiagnosed cases. The text has this:
To determine whether a particular well 22 contains sufficient turbidity or not, a threshold-based approach is used to determine the cut-off transmittance value for each well 22. As the turbidity increases, the light transmittance through the well decreases. This operation is illustrated as operation 230 in FIGS. 4 and 5. In particular, thresholding is applied to average normalized well intensities of sample-containing wells to determine whether a particular well 22 is classified as “turbid” or “not turbid.” To choose an accurate threshold value for each well 22, the normalized transmittance values of wells 22 with no turbidity are extracted from a training set of blank reference plates 20 (i.e., plates with drugs but no microbes). For example, sixty (60) such plates that are blanks can be imaged to determine the mean transmittance at each well 22. […] In one embodiment, from this set of normalized transmittance values from wells 22 with no turbidity, a threshold of two times the standard deviation below the mean of that particular well 22 is used to determine whether a given test or sample-containing well 22 is statistically likely to have microbial growth represented by turbidity. Those wells 22 that have an averaged, normalized intensity level that is lower than two times the standard deviation below the mean “not turbid” value are classified as “turbid” while wells 22 that don't meet that criteria are classified as “not turbid.” Of course, other measures may be used for defining the cutoff or threshold. For example, fractional standard deviation may also be used for a cutoff or threshold. In addition, the threshold could also include a numerical cutoff of intensity or other multiple of the standard deviation.
With reference to FIG. 3, after the wells 22 are classified as “turbid” or “not turbid,” the software 112 generates MIC values and susceptibility characterizations for the drug(s) on the AST plate 20. For a given type of AST plate 20 (i.e., Gram-negative or Gram-positive), the MIC value for each drug is determined by finding the lowest concentration of drug in a drug-specific set of wells 22 that contains no turbidity. More specifically, the MIC value is based on the adjacent, well 22 that is classified as not turbid as this well represents the lowest concentration of antibiotic that prevented bacterial growth (i.e. the MIC). Depending on the selected microbe of interest, drug susceptibility interpretations are automatically made by the software 112 based on the MIC for each drug. FIG. 7 illustrates the layout of a map or table 114 for the AST plate 20 with susceptibility characterizations for each drug at different concentration levels. The map or table 114 with susceptibility characterizations for each drug at different concentration levels may be stored in a database (e.g., database 109 or other local storage device) as a look-up table or the like. In some embodiments, the map or table 114 for each different bacterium may be stored in the database 109 or local storage device. For example, in looking at FIG. 7 with the example of the drug ampicillin (AM), various concentrations (μg/ml) of this drug is present within wells B1, C1, D1, E1 along with a growth medium. If wells B1 and C1 were classified as turbid while wells D1 and E1 were classified as not turbid, the MIC reading would be 16 μg/ml (e.g., looking at concentration in well D1). Likewise, the susceptibility characterization would be classified as “indeterminate” using the map or table 114. […]
(Broth dilution looks for growth in wells or tubes with falling amounts of substance.)

Consider `C[C@@H](O)[C@H]1C(=O)N2C(C(=O)O)=C(S[C@@H]3CN[C@H](C(=O)N(C)C)C3)[C@H](C)[C@H]12` [MPM, Meropenem], for which the “Diagnostician Decision (drug susceptibility interpretation)” value is “Susceptible” and the “Automated System Decision (drug susceptibility interpretation)” value was “Resistant”.
With `CC1(C)S[C@@H]2[C@H](NC(=O)[C@H](N)c3ccccc3)C(=O)N2[C@H]1C(=O)O` [AM, Ampicillin], the “Diagnostician Decision (drug susceptibility interpretation)” value was “Indeterminate” and the “Automated System Decision (drug susceptibility interpretation)” value is on record as “Resistant”.
For Ampicillin-Sulbactam [A/S], in that order: “Indeterminate” and “Resistant”.
